Experiments:
[1] = Half life of the compound in RPMI media at 37 degC; type: physicochemical; conditions: for half-life: RPMI media
[2] = system: Human immunodeficiency virus 1; experiment: Antiviral activity against HIV1 infected in human CEM-T4 cells assessed as protection against virus-induced cytopathogenicity by measuring reduction in p24 level preincubated with cells for 24 hrs followed by viral infection and measured after 8 days by MTT assay; type: functional, organism-based
[3] = Cytotoxicity against human CEM-T4 cells assessed as reduction in cell viability after 7 days by MTT assay; type: cell-based; conditions: for CC50 at 168 h: CEM-T4 cells; for CC50: 168 h
[4] = Selectivity index, ratio of CC50 for human CEM-T4 cells to EC50 for HIV1 infected in human CEM-T4 cells; type: toxicity, cell-based; conditions: read-out: Ratio CC50/EC50
[5] = Prodrug activation in RPMI media assessed as hydrolysis by measuring P-O bond cleavage
[6] = Prodrug activation in RPMI media assessed as hydrolysis by measuring P-O bond cleavage measured after 24 days; conditions: 576 h
[7] = Stability of the compound in RPMI media up to 7 days; type: physicochemical; conditions: 168 h
[8] = Human immunodeficiency virus 1, CEM-T4, read-out: EC50

Structure (SMILES) | half-life [1] [h] | EC50 [2, 8] [µM] | CC50 at 168 h [3] [µM] | selectivity ratio [4] | t1/2 [1] | EC50 [2] | CC50 [3] | Drug metabolism [5] | Drug metabolism [6] | Stability [7]
O=c1ccn([C@H]2CC[C@@H](COP(=O)(Nc3ccccc3)Oc3cccnc3)O2)c(=O)[nH]1 (stereo partly specified) | 120 | 7.3 | 225 | 31 | – | – | – | – | – | –
Cc1cn([C@H]2C[C@H](N=[N+]=[N-])[C@@H](COP(=O)(Nc3cccnc3)Oc3ccccc3)O2)c(=O)[nH]c1=O (stereo partly specified) | 168 | 0.035 | > 400 | > 11400 | – | – | – | – | – | –
O=c1ccn([C@H]2CC[C@@H](COP(=O)(Nc3cccnc3)Oc3cccnc3)O2)c(=O)[nH]1 (stereo partly specified) | 20 | 0.55 | > 200 | > 364 | – | – | – | – | – | –
Cc1cn([C@H]2C[C@H](N=[N+]=[N-])[C@@H](COP(=O)(Nc3ccncc3)Oc3ccccn3)O2)c(=O)[nH]c1=O (stereo partly specified) | 120 | 0.16 | > 50 | > 250 | – | – | – | – | – | –
Cc1cn([C@H]2C[C@H](N=[N+]=[N-])[C@@H](COP(=O)(Nc3ccccc3)Oc3cccnc3)O2)c(=O)[nH]c1=O (stereo partly specified) | 82 | < 0.012 | 360 | > 30000 | – | – | – | – | – | –
Cc1cn([C@H]2C[C@H](N=[N+]=[N-])[C@@H](COP(=O)(Nc3cccnc3)Oc3ccncc3)O2)c(=O)[nH]c1=O (stereo partly specified) | – | – | – | – | Nd(Unstable) | Nd(Unstable) | Nd(Unstable) | Nd(Unstable) | – | –
Cc1cn([C@H]2C[C@H](N=[N+]=[N-])[C@@H](COP(=O)(Nc3ccccc3)Oc3ccncc3)O2)c(=O)[nH]c1=O (stereo partly specified) | – | – | – | – | Nd(Unstable) | Nd(Unstable) | Nd(Unstable) | Nd(Unstable) | – | –
Cc1cn([C@H]2C[C@H](N=[N+]=[N-])[C@@H](COP(=O)(Nc3cccnc3)Oc3cccnc3)O2)c(=O)[nH]c1=O (stereo partly specified) | 27 | < 0.02 | > 200 | > 10000 | – | – | – | – | – | –
Cc1cn([C@H]2C[C@H](N=[N+]=[N-])[C@@H](COP(=O)(Nc3cccnc3)Oc3ccccn3)O2)c(=O)[nH]c1=O (stereo partly specified) | 33 | 0.06 | > 200 | > 3300 | – | – | – | – | – | –
Cc1cn([C@H]2C[C@H](N=[N+]=[N-])[C@@H](COP(=O)(Nc3ccccc3)Oc3ccccc3)O2)c(=O)[nH]c1=O (stereo partly specified) | – | 0.075 | > 66.8 | > 890 | – | – | – | – | Metabolite_Detected | Stable
Cc1cn([C@H]2C[C@H](N=[N+]=[N-])[C@@H](COP(=O)(Nc3ccncc3)Oc3ccccc3)O2)c(=O)[nH]c1=O (stereo partly specified) | 192 | 0.05 | > 400 | > 8000 | – | – | – | – | – | –
Cc1cn([C@H]2C[C@H](N=[N+]=[N-])[C@@H](COP(=O)(Nc3ccccc3)Oc3ccccn3)O2)c(=O)[nH]c1=O (stereo partly specified) | 45 | < 0.012 | > 22 | > 1830 | – | – | – | – | – | –
Cc1cn([C@H]2C[C@H](N=[N+]=[N-])[C@@H](COP(=O)(Nc3ccncc3)Oc3cccnc3)O2)c(=O)[nH]c1=O (stereo partly specified) | 105 | 0.2 | > 50 | > 250 | – | – | – | – | – | –
Cc1cn([C@H]2C[C@H](N=[N+]=[N-])[C@@H](COP(=O)(Nc3ccncc3)Oc3ccncc3)O2)c(=O)[nH]c1=O (stereo partly specified) | – | – | – | – | Nd(Unstable) | Nd(Unstable) | Nd(Unstable) | Nd(Unstable) | – | –
O=c1ccn([C@H]2CC[C@@H](COP(=O)(Nc3cccnc3)Oc3ccccc3)O2)c(=O)[nH]1 (stereo partly specified) | 168 | > 30 | 225 | < 7.5 | – | – | – | – | – | –

Source: ChEMBL document CHEMBL4411302, “Aryl H-phosphonates. 19. New anti-HIV pronucleotide phosphoramidate diesters containing amino- and hydroxypyridine auxiliaries” (Eur J Med Chem, 2019)
